Data: patent US20250051347A1, “BIFUNCTIONAL CHIMERIC HETEROCYCLIC COMPOUND AND USE THEREOF AS ANDROGEN RECEPTOR DEGRADER” (Hinova Pharmaceuticals, Inc., priority 2021, published 2025)
pIC50: −log10 of the molar value. Where two headings read alike, the source gives them in different places.

Assays:
[1] = target: T1, androgen receptor (AR) splicing variant AR-v7 (Homo sapiens, UniProt P10275); assay: Degradation activity on androgen receptor splicing variant AR-v7 in 22RV1 cells (ELISA); format: cell-based; settings: AR-v7 degradation in 22RV1 cells, 48 h
T1 construct: The degradation activity of compounds on AR-v7 in 22RV1 cells; host or cells: 22RV1 cells
T1 sequence (P10275 1-644 isoform P10275-3): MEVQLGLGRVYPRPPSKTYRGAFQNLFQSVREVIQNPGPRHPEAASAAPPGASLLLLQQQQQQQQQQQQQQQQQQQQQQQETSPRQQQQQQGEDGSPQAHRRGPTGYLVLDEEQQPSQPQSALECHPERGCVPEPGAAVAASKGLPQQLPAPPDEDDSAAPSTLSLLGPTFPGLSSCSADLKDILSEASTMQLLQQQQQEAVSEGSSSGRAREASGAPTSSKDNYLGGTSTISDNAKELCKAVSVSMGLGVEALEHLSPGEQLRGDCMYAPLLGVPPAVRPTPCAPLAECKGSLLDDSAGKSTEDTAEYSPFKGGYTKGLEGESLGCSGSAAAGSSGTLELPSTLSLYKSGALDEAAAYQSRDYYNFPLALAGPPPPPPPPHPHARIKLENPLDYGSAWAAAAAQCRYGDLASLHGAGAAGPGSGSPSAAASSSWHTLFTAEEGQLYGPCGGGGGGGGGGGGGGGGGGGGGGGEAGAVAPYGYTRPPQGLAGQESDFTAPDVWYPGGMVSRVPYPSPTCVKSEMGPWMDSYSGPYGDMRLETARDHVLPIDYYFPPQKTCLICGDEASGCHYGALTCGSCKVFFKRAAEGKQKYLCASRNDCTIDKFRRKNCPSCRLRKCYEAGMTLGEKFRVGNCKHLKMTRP

[2] = Pharmacokinetics in mice (plasma exposure after oral administration); format: in vivo; settings: mouse, ICR mice, oral (i.g.) 3 mg/kg, read-out: After oral administration of 3 mg/kg, mouse plasma exposure AUCinf
Protocol: • LC-20AD high performance liquid chromatography (SHIMADZU, Japan) • API4000 triple quadrupole mass spectrometer (Applied Biosystem, USA) • Phenix Winnolin Pharmacokinetic software (Version 6.3, Certara, USA) • High speed freezing centrifuge (Thermo Fisher Scientific) • Analytical balance (Sartorius, SECURA225D-ICN) • ICR mice (Chengdu Dossy Experimental Animals CO., LTD.)
A suitable amount of drug was accurately weighed, and then the medium (5% DMSO, 15% HS-15, 80% DSW) was added to prepare the solution at a concentration of 0.1 mg/ml (i.v.) and 0.3 mg/ml (i.g.).
18 healthy adult ICR mice were divided into two groups (9 mice for i.v. group; 9 mice for i.g. group), and administered by tail vein or by gavage after fasting overnight (free drinking water); using the satellite blood collection method, 3 animals were collected at each time point, and then 0.1 ml of blood obtained at different time points was anticoagulated with EDTA-K2, centrifuged at 4° C. for 5 min to separate the plasma, and stored at −80° C. for detection. The sampling time points after i.v. administration were 5 min, 15 min, 0.5 h, 1 h, 2 h, 4 h, 8 h, 12 h, and 24 h; while the sampling time points for i.g. group were before administration (0 h) as well as 0.5 h, 1 h, 2 h, 4 h, 6 h, 8 h, 12 h, and 24 h after administration. Then, the drug concentration in plasma was determined by LC/MS/MS.

22RV1 cells = settings: for IC50: Homo sapiens, 22Rv1, 144 h, read-out: 22RV1 IC50 (nM), 22RV1 cells, 6 days culture, CCK-8, OD 450 nm

Row | Structure (SMILES) | DC50 ([1]; numeric values) | AUC(0-inf) [2] | DC50 ([1]; class symbols) | IC50 (22RV1 cells) | pIC50 (22RV1 cells; read-out: 22RV1 IC50, 22RV1 cells, 6 days culture, CCK-8, OD 450 nm)
1 | CC(C)(c1ccc(O)cc1)c1ccc(OCCCCCCCCOCCCCNc2ccc3c(c2)C(=O)N(C2CCC(=O)NC2=O)C3=O)cc1 (stereo not shown) [Example 438, 2-(2,6-dioxopiperidin-3-yl)-5-((4-((8-(4-(2-(4-hydroxylphenyl)propan-2-yl)phenoxy)octyl)oxy)butyl)amino)isoindolin-1,3-dione] | > 2000 nM | 5000 to 30000 ng·h/mL | – | – | –
2 | CC(C)(c1ccc(OCc2ccnc(N3CC4(CNC4)C3)n2)cc1)c1ccc(O[C@H]2C[C@H](Nc3ccc4c(c3)C(=O)N(C3CCC(=O)NC3=O)C4=O)C2)cc1 (stereo partly shown) [Example 82, 5-(((1r,3r)-3-(4-(2-(4-((2-(2,6-diazaspiro[3.3]heptan-2-yl)pyrimidin-4-yl)methoxy)phenyl)propan-2-yl)phenoxy)cyclobutyl)amino)-2-(2,6-dioxopiperidin-3-yl)isoindolin-1,3-dione] | – | 100 to 1000 ng·h/mL | 11 to 100 nM | – | –
3 | CC(C)(c1ccc(OCc2ccnc(N3CC4(COC4)C3)n2)cc1)c1ccc(C(=O)NCCNc2ccc3c(c2)C(=O)N(C2CCC(=O)NC2=O)C3=O)cc1 (stereo not shown) [Example 501] | – | 1000 to 5000 ng·h/mL | 11 to 100 nM | – | –
4 | C=CC(c1ccc(Oc2ncc(-n3nccn3)cn2)cc1)c1ccc(O[C@H]2C[C@H](Nc3ccc4c(c3)C(=O)N(C3CCC(=O)NC3=O)C4=O)C2)cc1 (stereo partly shown) [Example 370, 5-(((1r,3r)-3-(4-(1-(4-((5-(2H-1,2,3-triazole-2-yl)pyrimidin-2-yl)oxy)phenyl)allyl)phenoxy)cyclobutyl)amino)-2-(2,6-dioxopiperidin-3-yl)isoindolin-1,3-dione] | – | 5000 to 30000 ng·h/mL | 11 to 100 nM | – | –
5 | CC(C)(c1ccc(OCc2ccnc(NCC3CNC3)n2)cc1)c1ccc(O[C@H]2C[C@@H](Nc3ccc4c(c3)C(=O)N(C3CCC(=O)NC3=O)C4=O)C2)cc1 (stereo partly shown) [Example 406] | – | 100 to 1000 ng·h/mL | – | – | –
6 | CNc1cnc(Oc2ccc(C(C)(C)c3ccc(O[C@H]4C[C@H](Nc5ccc6c(c5)C(=O)N(C5CCC(=O)NC5=O)C6=O)C4)cc3)cc2)cn1 (stereo partly shown) [Example 551] | – | – | 11 to 100 nM | 12 nM | –
7 | Cc1nnc(-c2nccc(COc3ccc(C(C)(C)c4ccc(O[C@H]5C[C@@H](Nc6ccc7c(c6)C(=O)N(C6CCC(=O)NC6=O)C7=O)C5)cc4)cc3)n2)o1 (stereo partly shown) [Example 465] | – | – | < 10 nM | 3 nM | –
8 | CC(C)(c1ccc(OCc2ccnc(-n3ccnn3)n2)cc1)c1ccc(O[C@H]2C[C@@H](Nc3ccc4c(c3)C(=O)N(C3CCC(=O)NC3=O)C4=O)C2)cc1 (stereo partly shown) [Example 445, 5-(((1s,3s)-3-(4-(2-(4-((2-(1H-1,2,3-triazol-1-yl)pyrimidin-4-yl)methoxy)phenyl)propan-2-yl)phenoxy)cyclobutyl)amino)-2-(2,6-dioxopiperidin-3-yl)isoindolin-1,3-dione] | – | – | < 10 nM | 5 nM | –
9 | CC(C)(O)c1ncc(Oc2ccc(C(C)(C)c3ccc(O[C@H]4C[C@H](Nc5ccc6c(c5)C(=O)N(C5CCC(=O)NC5=O)C6=O)C4)cc3)cc2)cn1 (stereo partly shown) [Example 548] | – | – | < 10 nM | 8 nM | –
10 | CC(C)(c1ccc(Oc2ccnc(-n3ccnn3)n2)cc1)c1ccc(O[C@H]2C[C@H](Nc3ccc4c(c3)C(=O)N(C3CCC(=O)NC3=O)C4=O)C2)cc1 (stereo partly shown) [Example 471, 5-(((1r,3r)-3-(4-(2-(4-((2-(1H-1,2,3-triazol-1-yl)pyrimidin-4-yl)oxy)phenyl)propan-2-yl)phenoxy)cyclobutyl)amino)-2-(2,6-dioxopiperidin-3-yl)isoindolin-1,3-dione] | – | – | < 10 nM | 17 nM | –
11 | CC(=O)c1nccc(COc2ccc(C(C)(C)c3ccc(OC[C@@H]4CCN4c4ccc5c(c4)C(=O)N(C4CCC(=O)NC4=O)C5=O)cc3)cc2)n1 (stereo partly drawn) [Example 308, 5-((S)-2-((4-(2-(4-((2-acetylpyrimidin-4-yl)methoxy)phenyl)propan-2-yl)phenoxy)methyl)azetidin-1-yl)-2-(2,6-dioxopiperidin-3-yl)isoindolin-1,3-dione] | – | – | 11 to 100 nM | 19 nM | –
12 | Cc1nnc(-c2cccc(COc3ccc(C(C)(C)c4ccc(O[C@H]5C[C@H](Nc6ccc7c(c6)C(=O)N(C6CCC(=O)NC6=O)C7=O)C5)cc4)cc3)n2)o1 (stereo partly shown) [Example 463] | – | – | < 10 nM | 11 nM | –
13 | CC(C)(c1ccc(OCc2ccnc(NC3COC3)n2)cc1)c1ccc(O[C@H]2C[C@@H](Nc3ccc4c(c3)C(=O)N(C3CCC(=O)NC3=O)C4=O)C2)cc1 (stereo partly shown) [Example 237] | – | – | < 10 nM | 9 nM | –
14 | CC(C)(c1ccc(OCCCNc2ccc3c(c2)C(=O)N(C2CCC(=O)NC2=O)C3=O)cc1)c1ccc(OCc2nc(C(N)=O)no2)cc1 (stereo not shown) [Example 143, 5-((4-(2-(4-(3-((2-(2,6-dioxopiperidin-3-yl)-1,3-dioxoisoindolin-5-yl)amino)propoxy)phenyl)propan-2-yl)phenoxy)methyl)-1,2,4-oxadiazol-3-carbonylamine] | – | – | 11 to 100 nM | 160 nM | –
15 | Cc1nnc(-c2ncc(Oc3ccc(C(C)(C)c4ccc(O[C@H]5C[C@H](Nc6ccc7c(c6)C(=O)N(C6CCC(=O)NC6=O)C7=O)C5)cc4)cc3)cn2)o1 (stereo partly shown) [Example 473] | – | – | 11 to 100 nM | 5 nM | –
16 | CC(C)(c1ccc(OCCCNc2ccc3c(c2)C(=O)N(C2CCC(=O)NC2=O)C3=O)cc1)c1ccc(OCc2ccnc(N)n2)cc1 (stereo not shown) [Example 74, 5-((3-(4-(2-(4-((2-aminopyrimidin-4-yl)methoxy)phenyl)propan-2-yl)phenoxy)propyl)amino)-2-(2,6-dioxopiperidin-3-yl)isoindolin-1,3-dione] | – | – | 11 to 100 nM | 31 nM | –
17 | CC(=O)c1ncc(Oc2ccc(C3(c4ccc(O[C@H]5C[C@H](Nc6ccc7c(c6)C(=O)N(C6CCC(=O)NC6=O)C7=O)C5)cc4)CCCCC3)cc2)cn1 (stereo partly shown) [Example 529] | – | – | < 10 nM | 2 nM | –
18 | CC(C)(c1ccc(OCc2ccnc(-n3ccnc3)n2)cc1)c1ccc(OC2CC(Nc3ccc4c(c3)C(=O)N(C3CCC(=O)NC3=O)C4=O)C2)cc1 (stereo not shown) [Example 405, 5-((1s,3s)-3-(4-(2-(2-(1H-imidazol-1-yl)pyrimidin-4-yl)methoxy)phenyl)propan-2-yl)phenoxy)cyclobutyl)amino)-2-(2,6-dioxopiperidin-3-yl)isoindol-1,3-dione] | – | – | < 10 nM | – | 7.72
19 | CC(C)(c1ccc(Oc2cnc(-n3nccn3)nc2)cc1)c1ccc(O[C@H]2C[C@H](Nc3ccc4c(c3)C(=O)N(C3CCC(=O)NC3=O)C4=O)C2)cc1 (stereo partly shown) [Example 436, 5-(((1r,3r)-3-(4-(2-(4-((2-(2H-1,2,3-triazol-2-yl)pyrimidin-5-yl)oxy)phenyl)propan-2-yl)phenoxy)cyclobutyl)amino)-2-(2,6-dioxopiperidin-3-yl)isoindolin-1,3-dione] | – | – | < 10 nM | 6 nM | –
20 | CC(=O)c1nccc(COc2ccc(C(C)(C)c3ccc(OCCCNc4ccc5c(c4)C(=O)N(C4CCC(=O)NC4=O)C5=O)cc3)cc2)n1 (stereo not shown) [Example 343, 5-((3-(4-(2-(4-((2-acetylpyrimidin-4-yl)methoxy)phenyl)isopropan-2-yl)phenoxy)propyl)amino)-2-(2,6-dioxopiperidin-3-yl)isoindolin-1,3-dione] | – | – | 11 to 100 nM | 19 nM | –
21 | COc1nccc(COc2ccc(C(C)(C)c3ccc(OCCCNc4ccc5c(c4)C(=O)N(C4CCC(=O)NC4=O)C5=O)cc3)cc2)n1 (stereo not shown) [Example 68, 2-(2,6-dioxopiperidin-3-yl)-5-((3-(4-(2-(4-((2-methoxypyrimidin-4-yl)methoxy)phenyl)propan-2-yl)phenoxy)propyl)amino)isoindolin-1,3-dione] | – | – | 11 to 100 nM | 30 nM | –
22 | Cc1nnc(-c2cnc(Oc3ccc(C(C)(C)c4ccc(O[C@H]5C[C@H](Nc6ccc7c(c6)C(=O)N(C6CCC(=O)NC6=O)C7=O)C5)cc4)cc3)cn2)o1 (stereo partly shown) [Example 589] | – | – | < 10 nM | 7 nM | –
